Laboratory results reported in publication PMC7747594, “Protease-activated receptor-2 ligands reveal orthosteric and allosteric mechanisms of receptor inhibition” (Communications Biology, 2020).
Several values for one entry are separate records, joined by “and”; a condition that tells them apart may be missing. Equal values may be shown once. Entries after “also recorded” stand apart in the source; their conditions may differ. Read-outs that look alike come from different tables or passages of the source.

How the values were obtained:
hPAR2 [1] = target: T1, hPAR2 (Homo sapiens, UniProt P55085); assay: Ca^2+ flux assay, agonist mode, 1321N1-hPAR2 cells; format: cell-based; set-up: Ca^2+ mobilisation tested as agonist, Fig 1c source data / Ca2+ response (Fig 2c), individual replicate values: unit not given here; settings: for Ca2+ response (Fig 2c), individual replicate values: hPAR2; for Ca^2+ mobilisation tested as agonist, Fig 1c source data: log[compound], individual data points
T1 sequence (P55085 26-397): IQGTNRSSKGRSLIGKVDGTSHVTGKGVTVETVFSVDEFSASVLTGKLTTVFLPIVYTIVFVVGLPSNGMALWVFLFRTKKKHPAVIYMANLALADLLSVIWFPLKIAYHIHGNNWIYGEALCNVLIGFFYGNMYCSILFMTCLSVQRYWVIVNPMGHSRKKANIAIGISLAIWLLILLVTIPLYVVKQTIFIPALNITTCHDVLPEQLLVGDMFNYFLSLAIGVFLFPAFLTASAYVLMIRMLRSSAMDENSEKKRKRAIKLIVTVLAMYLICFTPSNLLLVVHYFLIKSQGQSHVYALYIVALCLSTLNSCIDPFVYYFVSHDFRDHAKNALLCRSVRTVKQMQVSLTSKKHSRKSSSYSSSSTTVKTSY
Experimental: (§1) Cells were loaded with Fluo-8 NW calcium dye (AAT Bioquest) for 30 min at 37 °C before compounds in Hank’s balanced salt solution (HBSS, ThermoFisher Scientific) with 20 mM HEPES (ThermoFisher Scientific), 0.1% bovine serum albumin (BSA, Sigma) and 0.5% DMSO were added and simultaneously evaluated for changes in intracellular [Ca^2+] using FLIPR TETRA (Molecular Devices) to detect agonism. For each concentration, the difference between the maximum peak Ca^2+ response and baseline response is reported. […] Antagonism experiments were also carried out on 1321N1-PAR2[WT], 1321N1-PAR2[F154A], and 1321N1-PAR2[G157C] as described. Experiments with trypsin in 1321N1-hPAR2 cells were performed in the presence of 1 µM Vorapaxar (Chemtronica) to remove any interference of PAR1 activity. […] Antagonism experiments for CHO-hPAR2 and HT-29 cells were performed in 96-well plates at 30,000 cells/well. Cells were loaded with Fluo-3 AM calcium dye (Sigma-Aldrich) for 60 min at 37 °C in HBSS with 1% FBS, 0.2% pluronic acid, 20 mM HEPES and 2.5 mM probenecid prior to the addition of antagonist. The antagonist was pre-incubated for 60 min at 37 °C followed by the addition of bovine trypsin (30 nM) at EC80. Intracellular [Ca^2+] flux was measured using FLIPR TETRA (Molecular Devices) and the difference between the maximum peak Ca^2+ response and baseline response is reported.
(§2) Binding data were analysed using the One site – Fit Ki model in GraphPad Prism 8 (GraphPad Software) to determine binding affinity. Pharmacology in vitro potency data was analysed with a 4-parameter logistic fit using the equation y = Bottom + (Top − Bottom)/[…] where y is the response, x is the 10-logarithm of the drug concentration, Bottom is no response and Top is full response in GraphPad Prism 8 or Genedata Screener (Genedata). pEC50 and pIC50 data are presented as mean ± standard error of the mean (s.e.m.) derived from the number of independent experiments stated. Schild slope analysis was calculated using Graphpad Prism 8 Gaddum/Schild EC50 global fitting (shared model parameters between all data sets) competitive model. […] Schild slope quantifies the shifts in agonist response in the presence of antagonist, a Schild slope of 1 indicates the antagonist is competitive and extra-sum-of-squares F-test (p < 0.05) was used to compare the calculated Schild slope against a hypothetical Schild slope of 1. […] The relative activity was calculated using (EmaxEC50’)/(Emax’EC50) with the Hill slope help constant at 1. EC50’ and Emax’ denote the EC50 and Emax in the absence of allosteric modulator, while EC50 and Emax denote those measured in the presence of allosteric modulator. When the Hill slope = 1, the relative activity plot approaches an asymptote corresponding to the estimate of the γ value.

hPAR2 [2] = target: T1, hPAR2; assay: IP1 HTRF assay, inhibition of SLIGRL-NH2 in 1321N1-hPAR2 cells; format: cell-based; settings: for IC50: SLIGRL-NH2, 1321N1-hPAR2 cells, mean ± s.e.m., read-out: IP1 (hPAR2) pIC50 (converted)
Experimental: Inhibition of PAR2-induced inositol-1-phosphate (IP1) production was measured in 1321N1-hPAR2 cells using IP-One Gq HTRF assay kit (Cisbio). […] Next, EC80 of SLIGRL-NH2 (70 µM) supplemented with 50 mM LiCl was added and incubated for 60 min at 37 °C. Detection of IP1 production was performed according to the manufacturer’s protocol and HTRF was measured using PHERAstar (BMG LabTech). Data were normalised to [IP1] using a standard curve.
as §2

hPAR2 [3] = target: T1, hPAR2; assay: Europium-tagged competition binding assay against Eu-tagged-2f-LIGRLO(dtpa)-NH2 on CHO-hPAR2 cells; set-up: expressed in transfected cells; host or cells: Flp-In CHO
Experimental: CHO-hPAR2 cells were seeded overnight in 384-well plate at 2.5 × 10^4 cells/well and blocked with 2% BSA for 60 min. […] Cells were washed 3× with PBS supplemented with 20 µM EDTA, 0.01% Tween and 0.2% BSA followed by addition of DELFIA Enhancement Solution (Perkin Elmer) for 90 min. Time-resolved fluorescence was measured with PHERAstar FS reader (BMG Labtech).
as §2

rat PAR2 = target: T2, rat PAR2 (Rattus norvegicus, UniProt Q63645); assay: Ca^2+ flux assay, inhibition of SLIGRL-NH2 activation in rat KNRK cells; format: cell-based; settings: SLIGRL-NH2, rat PAR2 in KNRK cells; mean ± s.e.m.; read-out: Ca^2+ flux (rPAR2) pIC50 (converted)
T2 construct: a rat KNRK cell line with endogenous expression of rat PAR2; host or cells: rat KNRK cells
T2 sequence (Q63645 26-397): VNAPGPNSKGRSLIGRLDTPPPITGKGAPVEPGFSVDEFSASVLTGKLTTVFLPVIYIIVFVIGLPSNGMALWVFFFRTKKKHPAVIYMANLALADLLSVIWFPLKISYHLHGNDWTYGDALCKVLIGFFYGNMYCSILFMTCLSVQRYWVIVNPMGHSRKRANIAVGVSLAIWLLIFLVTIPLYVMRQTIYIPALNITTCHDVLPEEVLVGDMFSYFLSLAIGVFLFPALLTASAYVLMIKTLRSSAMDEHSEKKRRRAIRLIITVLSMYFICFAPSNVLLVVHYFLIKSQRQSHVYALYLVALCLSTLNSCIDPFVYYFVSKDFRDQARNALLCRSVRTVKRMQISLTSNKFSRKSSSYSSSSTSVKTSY

hPAR2 [4] = target: T1, hPAR2; assay: Ca^2+ flux assay (FLIPR), inhibition of SLIGRL-NH2 activation in 1321N1-hPAR2 cells; format: cell-based
Experimental: as §1, §2

How did the “higher potency than SLIGKV-NH2, Ca^2+ signalling” value (hPAR2 [1]; 1321N1-hPAR2) turn out when `CNC(=O)[C@H]1CC[C@@H](NC(=O)[C@H](CC2CCCCC2)NC(=O)c2cn(Cc3ccccc3)nn2)c2ccccc21` [AZ2429] was run?
Its value is 7 fold.

What about the “lower potency than GB110, Ca^2+ signalling” value (hPAR2 [1]; 1321N1-hPAR2) of the same compound?
Its value is 6 fold.

And the EC50 (hPAR2 [1]; 1321N1-hPAR2 cells, mean ± s.e.m., read-out: Ca^2+ flux pEC50 (converted))?
The EC50 was 166 nM.

And the “Ca2+ response (Fig 2c), individual replicate values” (from here on “Ca2+ response (Fig 2c)”) (hPAR2 [1]; [compound],M -4.30103)?
Its value is 115.742 and 78.7868 and 73.0001 and 99.0117.

And the “Ca2+ response (Fig 2c)” value (hPAR2 [1]; [compound],M -4.77815)?
Its value is 114.252 and 90.1883 and 78.2712 and 103.481.

And the “Ca2+ response (Fig 2c)” value (hPAR2 [1]; [compound],M -5.25527)?
Its value is 97.9804 and 100.329 and 107.319 and 71.9688.

What about the “Ca2+ response (Fig 2c)” value (hPAR2 [1]; [compound],M -5.73239) of the same compound?
The value was 87.2091 and 90.6467 and 67.5571 and 89.0425.

What about the “Ca2+ response (Fig 2c)” value (hPAR2 [1]; [compound],M -6.20952) of the same compound?
The value was 54.0357 and 69.6197 and 81.4796 and 66.5831.

What about the “Ca2+ response (Fig 2c)” value (hPAR2 [1]; [compound],M -6.68664) of the same compound?
The value was 45.3269 and 46.8166 and 52.6033 and 41.6601.

What about the “Ca2+ response (Fig 2c)” value (hPAR2 [1]; [compound],M -7.16376) of the same compound?
The value was 19.1435 and 34.6702 and 20.5758 and 32.3784.

And the “Ca2+ response (Fig 2c)” value (hPAR2 [1]; [compound],M -7.64088)?
Its value is 5.851 and 8.888 and 9.461 and 7.513.

And the “Ca2+ response (Fig 2c)” value (hPAR2 [1]; [compound],M -8.118)?
The value was -2.628 and 1.21 and 2.414 and 2.5854.

And the “Ca2+ response (Fig 2c)” value (hPAR2 [1]; [compound],M -8.59512)?
The value was -2.8 and -3.316 and -1.4252 and -1.712.

What does the source list for `C[C@@H](C1CCCCC1)n1c(-c2cc3c(cc2Br)OCO3)nc2cc(C(=O)Nc3ccncc3)ccc21` [AZ2623]?
IC50 (hPAR2 [2]): 81.3 nM; Ki (hPAR2 [3]; against Eu-tagged-2f-LIGRLO(dtpa)-NH2, CHO-hPAR2 cells, mean ± s.e.m., read-out: Competition Binding (hPAR2) pKi (converted)): 79.4 nM; IC50 (rat PAR2): 5.01 nM; IC50 (hPAR2 [4]; SLIGRL-NH2, 1321N1-hPAR2 cells, mean ± s.e.m., read-out: Ca^2+ flux (hPAR2) pIC50 (converted)): 5.01 nM

Which results are given for `C[C@@H](C1CCCCC1)n1c(-c2cc3c(cc2Br)OCO3)nc2cc(C(=O)Nc3ccc(C#N)cc3)ccc21` [AZ3451]?
IC50 (hPAR2 [2]): 22.4 nM; remaining activity at 0.1001 µM (hPAR2 [2]; log[compound], M -6.99957, individual data points, read-out: SLIGRL-NH2 IP1 formation, antagonist response, Fig 1d source data): 15.9%; remaining activity at 0.03164 µM (hPAR2 [2]; log[compound], M -7.49976, individual data points, read-out: SLIGRL-NH2 IP1 formation, antagonist response, Fig 1d source data): 43.6%; remaining activity at 0.01001 µM (hPAR2 [2]; log[compound], M -7.99957, individual data points, read-out: SLIGRL-NH2 IP1 formation, antagonist response, Fig 1d source data): 71.9%; remaining activity at 0.003165 µM (hPAR2 [2]; log[compound], M -8.49963, individual data points, read-out: SLIGRL-NH2 IP1 formation, antagonist response, Fig 1d source data): 100%; Kb (hPAR2 [3]; determined with Eu-tagged-2f-LIGRLO(dtpa)-NH2, read-out: equilibrium dissociation constant pKA / pKB (converted)): 126 nM; Ki (hPAR2 [3]; earlier manuscript version quoted by reviewer, read-out: Ki): 120 nM; IC50 (rat PAR2): 3.16 nM; IC50 (hPAR2 [4]; Ca^2+ assay, earlier manuscript version quoted by reviewer, read-out: IC50): 2.8 nM; remaining activity at 0.001319 µM (hPAR2 [4]; log[compound], M -8.87976, individual data points, read-out: SLIGRL-NH2 Ca^2+ mobilisation, antagonist response, Fig 1c source data): 77.4%; Ca^2+ mobilisation tested as agonist, Fig 1c source data (hPAR2 [1]; M -4.38018): 2.619 and -1.693 and 12.8149 and 8.844 and 5.039; Ca^2+ mobilisation tested as agonist, Fig 1c source data (hPAR2 [1]; M -4.88008): 6.334 and 5.142 and -5.002 and 2.343 and 2.365; Ca^2+ mobilisation tested as agonist, Fig 1c source data (hPAR2 [1]; M -5.38018): 7.004 and 3.992 and 6.097 and 3.93 and 1.406; Ca^2+ mobilisation tested as agonist, Fig 1c source data (hPAR2 [1]; M -5.88008): 0.5481 and 1.501 and 3.614 and 4.082 and 2.434; Ca^2+ mobilisation tested as agonist, Fig 1c source data (hPAR2 [1]; M -6.38007): 1.705 and 0.03194 and -3.0303 and 2.1164 and 2.6397; Ca^2+ mobilisation tested as agonist, Fig 1c source data (hPAR2 [1]; M -6.88008): 1.523 and 0.2236 and 5.2939 and 1.134 and 0.3771; Ca^2+ mobilisation tested as agonist, Fig 1c source data (hPAR2 [1]; M -7.37997): 1.949 and 4.9505 and 1.716 and -0.3779 and 3.12; Ca^2+ mobilisation tested as agonist, Fig 1c source data (hPAR2 [1]; M -7.88008): 3.289 and 0.09582 and 3.3954 and 1.814 and 4.697; Ca^2+ mobilisation tested as agonist, Fig 1c source data (hPAR2 [1]; M -8.37986): 0.7917 and -0.8623 and -2.957 and 0.7559 and 2.503; Ca^2+ mobilisation tested as agonist, Fig 1c source data (hPAR2 [1]; M -8.87976): 1.34 and -1.757 and 1.643 and 4.989 and 1.8855; agonist activity (tested as agonists) (hPAR2 [1]; Ca^2+ assay and other signalling assays): no effect; also recorded: no agonist activity
